Test results from publication PMC13544220, “Glycemic and bodyweight effects of GIPR coding variation reflect differences in surface expression and intrinsic functional impairment” (Science Advances, 2026).
Positions count from the first letter of the chain named.

How the values were obtained:
[1] = target: T1, wild-type and variant SNAP-GIPR (Homo sapiens, UniProt P48546, E354Q); assay: cAMP concentration response (HTRF) in AD293 cells, SNAP-GIPR; format: cell-based; conditions: AD293, SNAP-GIPR E354Q, 0.1% BSA
T1 construct: the endogenous GIPR signal peptide was removed and replaced with a SNAPf tag; host or cells: AD293 (adherent HEK293), transient transfection
T1 sequence (P48546 22-466 E354Q): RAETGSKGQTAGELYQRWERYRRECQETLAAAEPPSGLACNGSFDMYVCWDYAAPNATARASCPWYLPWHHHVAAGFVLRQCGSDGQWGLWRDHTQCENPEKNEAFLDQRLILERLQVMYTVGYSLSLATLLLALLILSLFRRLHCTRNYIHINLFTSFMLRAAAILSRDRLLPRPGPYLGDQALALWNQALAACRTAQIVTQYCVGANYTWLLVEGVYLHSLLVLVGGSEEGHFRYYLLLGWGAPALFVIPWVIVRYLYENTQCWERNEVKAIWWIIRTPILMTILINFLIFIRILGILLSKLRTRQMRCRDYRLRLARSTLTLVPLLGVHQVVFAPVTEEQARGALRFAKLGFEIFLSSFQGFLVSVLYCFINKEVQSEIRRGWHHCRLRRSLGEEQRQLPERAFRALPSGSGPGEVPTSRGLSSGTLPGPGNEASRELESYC
Procedure: (Imperial College London): 24 hours before the experiment, AD293 cells were reverse transfected with the GIPR variant or wild-type plasmids using Lipofectamine 2000 in 12-well plates. All variants were tested in parallel on each occasion to control for transfection efficiency differences between experiments. […] Data were fit using a three-parameter logistic model using GraphPad Prism 10.

hGIPR WT = target: T2, hGIPR WT (Homo sapiens, UniProt P48546); assay: cAMP accumulation in HEK293 cells, untagged GIPR (Eli Lilly); format: cell-based; conditions: HEK-293, untagged, 0.1% casein, (SEM, n), n=4
T2 construct: expressed in transfected cells; host or cells: HEK293, transient
T2 sequence (P48546 22-466): T1 sequence (P48546 22-466 E354Q) with Q333E

[2] = test system: membranes from untransfected HEK293 cells; assay: [125I]GIP(1-42)OH radioligand binding, untransfected control; design: species or system human; conditions: either assay condition
Procedure: Radioligand binding to the GIPR variant receptors was performed using the assay procedure described in ([59]) with some slight modification in the buffer. […] A3782), and 25 mM Hepes (Gibco, catalog no. […] The assay was incubated overnight at 25°C and then centrifuged at 1000 rpm (Beckman Coulter, Avanti J-15R).

CC[C@H](C)[C@H](NC(=O)[C@H](CC(C)C)NC(=O)[C@H](Cc1c[nH]c2ccccc12)NC(=O)[C@H](CCC(N)=O)NC(=O)[C@@H](NC(=O)[C@H](Cc1ccccc1)NC(=O)[C@H](C)NC(=O)[C@H](CCCCNC(=O)COCCOCCNC(=O)COCCOCCNC(=O)CC[C@H](NC(=O)CCCCCCCCCCCCCCCCCCC(=O)O)C(=O)O)NC(=O)[C@H](CCC(N)=O)NC(=O)[C@H](C)NC(=O)[C@@H](NC(=O)[C@H](CCCCN)NC(=O)[C@H](CC(=O)O)NC(=O)[C@H](CC(C)C)NC(=O)C(C)(C)NC(=O)[C@@H](NC(=O)[C@H](CO)NC(=O)[C@H](Cc1ccc(O)cc1)NC(=O)[C@H](CC(=O)O)NC(=O)[C@H](CO)NC(=O)[C@@H](NC(=O)[C@H](Cc1ccccc1)NC(=O)[C@@H](NC(=O)CNC(=O)[C@H](CCC(=O)O)NC(=O)C(C)(C)NC(=O)[C@@H](N)Cc1ccc(O)cc1)[C@@H](C)O)[C@@H](C)O)[C@@H](C)CC)[C@@H](C)CC)C(C)C)C(=O)N[C@@H](C)C(=O)NCC(=O)NCC(=O)N1CCC[C@H]1C(=O)N[C@@H](CO)C(=O)N[C@@H](CO)C(=O)NCC(=O)N[C@@H](C)C(=O)N1CCC[C@H]1C(=O)N1CCC[C@H]1C(=O)N1CCC[C@H]1C(=O)N[C@@H](CO)C(N)=O [tirzepatide]
cAMP signaling (∆LogEmax/EC50) [1]: increased cAMP signaling | Emax (hGIPR WT): 90.6%

[125I]GIP(1-42)OH: radioligand [125I]GIP(1-42)OH (Revvity)
specific binding, untransfected HEK293 membranes [2]: no significant specific binding detected
